The text below walks through data of patent US8507411B2, “Neoglycorandomization and digitoxin analogs” (priority 2004, dated 2013).

The test system of data set [1] is Hep3B. In words: High-throughput calcein AM cytotoxicity assay, Hep3B. The data set is classed as cell-based, human. The source says:
(§1) Standard errors are depicted with error bars.

For data set [2], the target named is T1, Na+/K+-ATPase (Homo sapiens, UniProt P05023).
T1 construct: endogenous in cells; host or cells: HEK-293
In words: Non-radioactive rubidium ion uptake assay, HEK-293 cells. The class given is cell-based. The note with it: read-out: Na+/K+-ATPase Inhibition IC50. On the procedure:
(§2) Na/K-ATPase Assays. Inhibition of Na^+/K^+-ATPase on HEK-293 cells and CHO-K1 cells by the library hits was determined by Aurora Biomed, Inc. using a high-throughput non-radioactive rubidium ion uptake assay. Experiments were conducted in duplicate using three different concentrations. Within each experiment, percent inhibition values at the three concentrations were expressed as the percent reduction of the maximum absorption signal observed for a 0 nM control. IC50 values were determined using the following formula: IC50=[(50−low %)/(high %−low %)]×(high conc.−low conc.)+low conc.
(§3) To assess how these structural modifications impact the ability of library members to inhibit Na^+/K^+-ATPases, a fundamental activity of cardiac glycosides (Paula, S., et al., (2005) Biochemistry 44, 498-510), library hits 5β, 15β, 23β, 27β, 33β, 40β, and digitoxin (1) were submitted to a non-radioactive rubidium uptake assay to gauge Na^+/K^+-ATPase inhibition in both […] human embryonic kidney cells and CHO-K1 hamster ovary cells (Gill, S. et al., (2004) ASSAY and Drug Development Technologies 2, 535-542).

The subject of data set [3] is NCI-H460. In words: High-throughput calcein AM cytotoxicity assay, NCI-H460. The note with it: NCI-H460 cells. The data set is classed as cell-based, human.
Excerpt: as §1

Data set [4] concerns the target Na+/K+-ATPase (Cricetulus griseus, UniProt A0A8C2N4Z0). Nature of the data set: Non-radioactive rubidium ion uptake assay, CHO-K1 cells. The class given is cell-based, hamster. The note with it: read-out: Na+/K+-ATPase Inhibition IC50. As to the method:
as §2, §3

For data set [5], the system named is nine human cancer cell lines and a mouse mammary normal epithelial control line. Nature of the data set: High-throughput calcein AM cytotoxicity assay, whole cell line panel. The note with it: cell line panel, 72 h, calcein AM. The source says: In the assay, live cells were distinguished by the presence of a ubiquitous intracellular enzymatic activity which converts the non-fluorescent cell-permeable molecule calcein AM to the intensely fluorescent molecule calcein, which is retained within live cells. The IC50 value for each library member represents at least six replicates of dose-response experiments conducted over five concentrations using two-fold dilutions. […] Standard errors are depicted with error bars. Numerical values and corresponding error values can be found in Table 4. Du145: […]; MCF7: human breast carcinoma; HCT-116: human colon carcinoma, Hep3B: human liver carcinoma; SF-268: human CNS glioblastoma; SK-OV-3: human ovary adenocarcinoma; NCI-H460: human lung carcinoma; A549: human lung adenocarcinoma; NCI/ADR-RES: human breast carcinoma; NmuMG: mouse mammary normal epithelial.
Cell Culture: All cell lines except NmuMG were maintained in RPMI 1640 medium from InVitrogen (Cat No. 11875-085) supplemented with 10% w/v fetal bovine serum (FBS) from ICN (Cat No. 2916154) and penicillin-streptomycin (PS) (100 U/mL and 100 μg/mL) from InVitrogen (Cat No. 15140-122). NmuMG cells were maintained in DMEM medium from InVitrogen (Cat No. 11965-084) supplemented with 10% w/v fetal bovine serum (FBS) from ICN (Cat No. 2916154), 10 μg/ml insulin (InVitrogen Cat No 12585-014), and penicillin-streptomycin (PS) (100 U/mL and 100 μg/mL) from InVitrogen (Cat No. 15140-122). Cells were harvested by trypsinization using 0.25% w/v trypsin and 0.1% w/v EDTA from InVitrogen (Cat No. 15-050-057) and then counted in a hemocytometer in duplicate with better than 10% agreement in field counts. Cells were plated at a cell density of 10,000-15,000 cells/well of each Corning Costar 96-well black tissue culture treated microtiter plate (Fisher Cat No. 07-200-627). Cells were grown for 1 h at 37° C., with 5% CO2 in a humidified incubator to allow cell attachment to occur before compound addition.
Library Member Handling and Preparation for Cytotoxicity Assays: Library members were stored at −20° C. under dessicating conditions before the assay. Library member stocks (100×) were prepared in Corning Costar polypropylene 96-well V-bottom polypropylene microtiter plates (Fisher Cat No. 07-200-695). Five serial 1:2 dilutions were made with anhydrous DMSO at 100× the final concentration used in the assay.
Library Member Addition: The library member-containing plates were diluted 1:10 with complete cell culture media. The 10× stocks (10 μL) were added to the attached cells using a Biomek FX liquid handler (Beckman-Coulter). Library member stocks (10 μL) were added to 90 μL of cells in each plate to insure full mixing of stocks with culture media using a Beckman FX liquid handler with 96-well head.
Determination of Cytotoxicity: Cells were incubated with the library members for 72 h before fluorescence reading. Test plates were removed from the incubator and washed 1× in sterile PBS to remove serum containing calcium esterases. Calcein AM reagent (30 μL, […]) was added and the cells were incubated for 30 min at 37° C. Plates were read for emission using a fluorescein filter (excitation 485 nm, emission 535 nm).
IC50 Calculation: For each library member, at least six dose response experiments were conducted. […] To calculate IC50, percent inhibitions were plotted as a function of log [concentration] and then fit to a four-parameter logistic model that allowed for a variable Hill slope using XLfit 4.1.
Cytotoxicity Assays. All cell lines except NmuMG were maintained in RPMI 1640 medium supplemented with 10% w/v fetal bovine serum (FBS) and penicillin-streptomycin (PS) (100 U/mL and 100 μg/mL).

The test system of data set [6] is Du145. Nature of the data set: High-throughput calcein AM cytotoxicity assay, Du145. The data set is classed as cell-based, human.
Excerpt: as §1

The subject of data set [7] is HCT-116. Nature of the data set: High-throughput calcein AM cytotoxicity assay, HCT-116. The class given is cell-based, human. The note with it: HCT-116 cells.
Excerpt: as §1

For data set [8], the system named is A549. Nature of the data set: High-throughput calcein AM cytotoxicity assay, A549. The class given is cell-based, human. The following applies: A549 cells.
Excerpt: as §1

For data set [9], the system named is NmuMG. In words: cells. The data set is classed as cell-based, mouse. In short, it runs like this: (§4)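 Live-cell esterase read-out: calcein AM added for 30 min at 37° C after 72 h compound exposure and a PBS wash. Dosing used a five-point 1:2 series. IC50 values are variable-slope logistic fits over at least six replicate experiments.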
Data set [10] deals with MCF7. Nature of the data set: High-throughput calcein AM cytotoxicity assay, MCF7. The data set is classed as cell-based, human. The following applies: MCF7 cells.
Excerpt: as §1

Data set [11] deals with NCI/ADR-RES. Nature of the data set: cells. The class given is cell-based, human. The following applies: NCI/ADR-RES cells. In short, it runs like this: as §4
Data set [12] deals with SF-268. In words: cells. The data set is classed as cell-based, human. The following applies: SF-268 cells. In outline: as §4
The test system of data set [13] is SK-OV-3. In words: cells. The note with it: SK-OV-3 cells. The data set is classed as cell-based, human. In outline: as §4
Data set [14] is described as follows: Hydrolytic stability of the neoglycosidic linkage. The note with it: 3 mM in 1:1 DMSO/buffer, one month. The class given is physicochemical. As to the method: FIG. 4 is a graphic representation of the results of studies on the hydrolytic stability of neoglycoside 4α. The chemical stability of the neoglycosidic linkage was examined by monitoring the hydrolytic degradation of neoglycoside 4α in a 3 mM solution of 1:1 DMSO/buffer. Three buffers were used, 50 mM acetate buffer (pH 5), 50 mM phosphate buffer (pH 7), and 50 mM Tris buffer (pH 9). Neoglycoside degradation was monitored by reverse phase HPLC on an Agilent Zorbax Eclipse XDB-C8 column (4.6×150 mm) with a flow rate of 0.8 mL min^−1 and a linear gradient of 49% CH3OH/H2O to 89% CH3OH/H2O over 20 min. At t=0, neoglycoside 4α in 500 μL DMSO was added to 500 μL buffer, and the resulting solution was vortexed for 40 sec, then immediately injected onto the HPLC. Peak areas at 220 nm were used to estimate the neoglycoside/aglycon ratio, which is reported as “percent neoglycoside remaining” [Aneoglycoside/(Aneoglycoside+Aaglycon)] for each of the three buffer systems.
Hydrolytic Stability of 4α. The chemical stability of the neoglycosidic linkage was examined by monitoring the hydrolytic degradation of neoglycoside 4α in a 3 mM solution of 1:1 DMSO/buffer. Three buffers were used, 50 mM acetate buffer (pH 5), 50 mM phosphate buffer (pH 7), and 50 mM Tris buffer (pH 9). Neoglycoside degradation was monitored by reverse phase HPLC on an Agilent Zorbax Eclipse XDB-C8 column (4.6×150 mm) with a flow rate of 0.8 mL min^−1 and a linear gradient of 49% CH3OH/H2O to 89% CH3OH/H2O over 20 min. At t=0, neoglycoside 4α in 500 μL DMSO was added to 500 μL buffer, and the resulting solution was vortexed for 40 sec, then immediately injected onto the HPLC. Peak areas at 220 nm were used to estimate the neoglycoside/aglycon ratio, which is reported as “percent neoglycoside remaining” [Aneoglycoside/(Aneoglycoside+Aaglycon)] for each of the three buffer systems (see FIG. 4).
The chemical stability of the neoglycosidic linkage was examined by monitoring the hydrolytic degradation of neoglycoside 4α in a 3 mM solution of 1:1 DMSO/buffer using buffers at three different pHs.

[15] abbreviates: NmuMG mouse mammary normal epithelial control line, read-out: IC50, NmuMG.

Where two headings read alike, the source gives them in different places.

For the compound D-arabinoside [33β], the IC50 was 260 nM in data set [1] (Hep 3B cells, read-out: IC50, Hep 3B); greater than 300000 nM in data set [2]; 330 nM in data set [3] (read-out: IC50, NCI-H460); 170000 nM in data set [4]; 170 nM in data set [6] (Du145 cells, read-out: IC50, Du145); 360 nM in [7] (read-out: IC50, HCT-116). The IC50 in data set [8] (read-out: IC50, A549) was 340 nM; in [9] (setting [15]), 120 nM; in [10] (read-out: IC50, MCF7), 300 nM; in data set [11] (read-out: IC50, NCI/ADR-RES) it was 124 nM; in [12] (read-out: IC50, SF-268) it was 160 nM; in [13] (read-out: IC50, SK-OV-3), 470 nM. Moreover, the “cytotoxicity (in words)” value in data set [5] is “closely mimicked this activity”.

For the compound `CON([C@@H]1CC[C@@]2(C)[C@H](CC[C@@H]3[C@@H]2CC[C@]2(C)[C@@H](C4=CC(=O)OC4)CC[C@]32O)C1)[C@@H]1O[C@H](CO)[C@@H](O)[C@H](O)[C@H]1O` [4α, D-glucoside], the IC50 in data set [1] (Hep 3B cells, read-out: IC50) was greater than 25000 nM; in data set [3] (read-out: IC50), greater than 25000 nM; in [6] (Du145 cells, read-out: IC50), greater than 25000 nM; in [7] (read-out: IC50), greater than 25000 nM; in data set [8] (read-out: IC50), greater than 25000 nM; in [9] (NmuMG cells (mouse mammary normal epithelial control line), read-out: IC50) it was greater than 25000 nM. Further, the IC50 in data set [10] (read-out: IC50), in [11] (read-out: IC50), in data set [12] (read-out: IC50) and in data set [13] (read-out: IC50) was greater than 25000 nM each time. In addition, the hydrolytic stability entry in data set [14] (acidic conditions (pH 5)) is given as “slowly hydrolyzed”; in data set [14] (neutral or basic conditions (pH 7, pH 9)), “completely stable”.

Regarding `CON(C1CCC2(C)C(CCC3C2CCC2(C)C(C4=CC(=O)OC4)CCC32O)C1)C1OC(CO)C(O)C(O)C1O` [40β, D-taloside], the IC50 in data set [1] (Hep3B, 72 h, calcein AM, read-out: IC50) was 180 nM; in data set [2], greater than 200000 nM; in data set [3] (read-out: IC50, NCI-H460), 800 nM; in [4], 180000 nM; in data set [6] (Du145, 72 h, calcein AM, read-out: IC50) it was 200 nM; in data set [7] (read-out: IC50, HCT-116) it was 1900 nM. Besides, the IC50 is 410 nM in [8] (read-out: IC50, A549); 480 nM in data set [9] (setting [15]); 1400 nM in data set [10] (read-out: IC50, MCF7); 1900 nM in data set [11] (read-out: IC50, NCI/ADR-RES); 1300 nM in [12] (read-out: IC50, SF-268); 490 nM in data set [13] (read-out: IC50, SK-OV-3).
